The values below come from the METLIN SMRT retention time set (Domingo-Almenara et al. 2019).

This series is described as follows: gradient 5% acetonitrile 3 min, to 50% in 2 min, to 85% in 15 min, held 3 min, 100 µL/min. Conditions: column: Zorbax Extend-C18 2.1 x 50 mm; eluents: water / acetonitrile, 0.1% formic acid. The method, boiled down: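 Retention times of pure standards were taken from adduct peaks that were selected by computer and manually inspected. Over 3 months, mixtures of ~100 molecules were run by HPLC–quadrupole time-of-flight mass spectrometry in positive and negative ionization mode. The Zorbax Extend-C18 column (2.1 × 50 mm, 1.8 μm) ran at 100 μL/min in water and acetonitrile, each containing 0.1% formic acid, with 40 μL dead volume and 900 μL dwell volume.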
`O=C(NCC1CCOCC1)Nc1ccccc1Cl`: the RP-LC retention time was 741 s.
The result for `Cc1noc(/C=C\c2ccc(S(=O)(=O)N3CCCCC3C)cc2)c1NC(=O)C1CC1` (stereo not given) reads 938 s.
On to `O=C(Cc1cccs1)NC1CC(=O)N(C2CC2)C1` (stereo not given), for which the RP-LC retention time stood at 584 s.
The same measure for `CN(Cc1nc(-c2ccc(N3CCCC3)nc2)no1)C1CCCCC1`: 569 s.
The same measure for `CCOc1ccccc1N1CCN(C(=O)c2sc3ncccc3c2-n2cccc2)CC1`: 1040 s.
The same measure for `Cc1ccc2c(Nc3cc(F)ccc3F)c(C(=O)OC(C)C)cnc2n1`: 771 s; for `COc1ccc(-c2noc(C3CC(=O)N(c4cc(C)cc(C)c4)C3)n2)cc1OC` (stereo not given): 922 s.
Regarding `COc1ccc(-c2cn3c(CC(=O)NC4CCCCCC4)csc3n2)cc1OC`, the RP-LC retention time turned out to be 729 s.
As to `Cc1noc([C@@H]2CN(C(=O)c3occc3C)C[C@H]2COCC2CC2)n1`, the RP-LC retention time is 794 s.
Molecule `CC(C)(C)c1csc(-c2csc(S(=O)(=O)NCc3ccccc3)c2)n1` gave an RP-LC retention time of 1230 s.
The same measure for `CCCCn1c(C(C)NC(=O)c2ccco2)nc2ccccc21` (stereo not given): 651 s; for `CCCc1ccc(S(=O)(=O)N2CCc3c(c(-c4nnc(SCC)n4CC)nn3C)C2)cc1`: 1090 s; for `CCCN1CCN(C(=O)c2cn(-c3cc(N4CCSCC4)ncn3)cn2)CC1`: 605 s.
The same measure for `CCOc1cccc(CNC(=O)c2cn3c(n2)CCCC3)c1`: 602 s; for `COc1ccccc1NC(=O)N1CCCC(Cn2c(C3CC3)nc3cccnc32)C1` (stereo not given): 681 s; for `CC(=O)N[C@@H]1CN(C(=O)Cc2ccccc2Br)C[C@H]1CO`: 610 s.
The same measure for `CN(C)CCn1cc(C(=O)NCc2cccs2)ccc1=O`: 578 s; for `COc1ccc(S(=O)(=O)N2CCCC(C(=O)Nc3cccc(SC)c3)C2)cc1Cl` (stereo not given): 1060 s.
Molecule `CCCN1CCN(C(=O)C2CCN(c3nc4cccnc4s3)CC2)CC1` registered an RP-LC retention time of 574 s.
The same measure for `CN1C(=O)NC2(CCN(C(=O)c3cccs3)CC2)C1=O`: 561 s; for `CC(C)c1noc(-c2cc(=O)n(CC(=O)NCc3cccs3)c3ccccc23)n1`: 933 s; for `Cc1cccc2c(C(=O)N(C)C)cc(=O)[nH]c12`: 597 s.
The result for `Cc1ccc(CC(=O)NC(C)C(=O)Nc2nc3ccccc3[nH]2)cc1` (stereo not given) reads 665 s; that for `O=C(c1ccccn1)N1CCc2cc(-c3csc(C4CC4)n3)ccc21`, 975 s.
Molecule `COc1ccc(OC)c(C(O)CN2CCN(c3cccc(C)c3)CC2)c1` (stereo not given) gave an RP-LC retention time of 712 s.
The same measure for `Cc1cc(OCC(=O)Nc2ccccc2Cl)nc(N2CCN(c3ccccc3)CC2)n1`: 993 s; for `COc1ccc(C2(C(=O)N3C[C@H]4C[C@H](C3)[C@H]3CCCC(=O)N3C4)CCCCC2)cc1`: 826 s; for `COc1ccc(OC)c(S(=O)(=O)N2CCc3nc(-c4ccc(F)cc4)ncc3C2)c1`: 1050 s.
The same measure for `CCNc1cc(C)nc(N2CCN(C(=O)c3ccccc3)CC2)n1`: 616 s.
The same measure for `O=C(C1CCN(c2cncnc2N2CCCC2)CC1)N1CCCCC1`: 613 s.
The molecule `CCOC(=O)C1CCN(S(=O)(=O)c2ccc(Cl)c(-c3nnc(-c4ccccc4)o3)c2)CC1` gave an RP-LC retention time of 1130 s.
The same measure for `CCCCN1C(=O)C(C)(C(=O)NCCOC)Oc2cccnc21` (stereo not given): 781 s; for `CC(O)(CNC(=O)C(=O)NCCC1=CCCCC1)c1cccs1` (stereo not given): 1120 s; for `COC(=O)c1cc(OCC(=O)Nc2cc(F)ccc2F)c2ccccc2n1`: 838 s.
As for `Clc1nc(NCCc2ccccc2)c2cn[nH]c2n1`, the RP-LC retention time is 827 s.
The result for `CCOc1ccccc1-c1csc(NC(=O)c2sc(C)nc2C)n1` reads 981 s; that for `O=C(Cn1ccn2nc(-c3ccccc3)cc2c1=O)NCc1ccccc1Cl`, 817 s; that for `COC(=O)c1cc(OCC(=O)NCc2ccc3c(c2)OCO3)c2cc(Cl)ccc2n1`, 827 s.
`COc1ccc(-c2ncccc2CNC(=O)C2CC2)cc1` gave an RP-LC retention time of 569 s.
The same measure for `CSc1nc2ccc(NC(=O)c3ccc(N4C(=O)CCC4=O)cc3)cc2s1`: 730 s; for `Cc1ncc(C(=O)NC2CC2)c(=O)n1CC(=O)Nc1cc(F)ccc1F`: 705 s.
The result for `CCS(=O)(=O)Nc1ccc(-c2noc(CNS(=O)(=O)c3ccccc3)n2)cc1` reads 720 s; that for `Cc1ccc(C)c(NC(=O)Nc2ccc3nnc(C)n3c2)c1`, 695 s; that for `O=S(=O)(NC1CCCC1)c1ccc(-c2cc(C(F)(F)F)on2)o1`, 1060 s.
The same measure for `Cc1ccc(Nc2c(-c3ccc(N(C)C)cc3)nc3cnccn23)cc1`: 855 s.
Regarding `CCN1CCN(C(=S)Nc2ccc3nc(N4CCN(CC)CC4)cc(C)c3c2)CC1`, the RP-LC retention time amounted to 519 s.
The result for `O=C(NCc1ccc2c(c1)OCO2)C1CCCN(C(=O)c2cc(-c3ccncc3)n[nH]2)C1` (stereo not given) reads 599 s.
The same measure for `CC(C)CC(=O)Nc1cc2c(cc1S(=O)(=O)c1ccc(F)cc1)n(C)c(=O)n2C`: 847 s; for `Cc1ccccc1CC(=O)N1CCCC(COc2ccc(C(=O)N3CCOCC3)cc2)C1` (stereo not given): 811 s; for `CC(C)NC(=O)c1cccc(Nc2c(-c3ccccc3)nc3cnccn23)c1`: 719 s.
With `Cc1ccc(C)c2sc(N(C)CC(=O)Nc3ccc(S(C)(=O)=O)cc3)nc12`, the RP-LC retention time stood at 892 s.
The result for `C=CCN1C(=O)COc2ccc(-c3csc(NC(=O)c4ccc(C)cc4)n3)cc21` reads 1050 s; that for `C=CCc1cc(OC)ccc1OCC(O)CN1CCN(c2ccc(OC)cc2)CC1` (stereo not given), 597 s; that for `Cc1noc(CNC(=O)C2CCN(C(=O)CSc3ccc(F)cc3)CC2)n1`, 645 s.
The same measure for `COC(=O)c1[nH]c(C)c(C(=O)C(C)N(CC2CCCCC2)C(=O)c2ccccc2)c1C` (stereo not given): 1050 s; for `CC1CCN(S(=O)(=O)c2ccc3nn(CCc4ccccc4)c(=O)n3c2)CC1`: 1020 s.
As for `COc1ccc(F)cc1S(=O)(=O)NC1CCc2nnc(C3CC3)n2CC1` (stereo not given), the RP-LC retention time was found to be 641 s.
As to `CCOC(=O)c1ccc(N2C=C(C#N)S(=O)(=O)c3ccc(C)cc32)cc1`, the RP-LC retention time came to 978 s.
The result for `COc1ccc(-c2noc(C3CCCN3C(=O)c3cccnc3)n2)cc1` (stereo not given) reads 725 s.
The same measure for `Cc1noc(-c2ccc(-n3ncc(C(=O)NCCc4c[nH]c5ccccc45)c3C)nc2)n1`: 898 s.
